Molecular target: T1, human NaV1.6 (hNaV1.6) (Homo sapiens, UniProt Q9UQD0)
T1 construct: expressed in transfected cells; host or cells: HEK-293
Experiment: Modulation of late sodium current (INaL) at hNaV1.6, PatchXpress electrophysiology
Format: cell-based
Conditions: HEK293, HEK-293 cells expressing recombinant human NaV 1.6, late current evoked by 300 nM ATX-II, read-out: NaV 1.6 Assay Data (percent inhibition of INaL at hNaV1.6)
Experimental: Functional characterization of exemplary compounds to modulate INaL expressed by the NaV1.6 voltage-gated sodium channel was accomplished using the PatchXpress™ high throughput electrophysiology platform (Molecular Devices, Sunnyvale, CA). HEK-293 cells expressing recombinant, human NaV1.6 (hNaV1.6) were grown in DMEM/high-glucose Dulbecco's modified, 10% FBS, 2 mM sodium pyruvate, 10 mM HEPES and 400 μg/mL G418. Cells were grown to 50%-80% confluency prior to harvesting. Trypsinized cells were washed, allowed to recover for 1 hour and then resuspended in extracellular recording solution at a concentration of 1×10^6 cells/ml. The onboard liquid handling facility of the PatchXpress was used for dispensing cells and applying test compounds. NaV late currents were evoked by the application of 300 nM ATX-II. INaL was evoked by depolarizing pulses to 0 mV for 200 ms from a non-inactivating holding potential (e.g., −120 mV) at a frequency of 0.1 Hz. INaL amplitude and stability were determined by analyzing the mean current amplitude over the final 20 ms of the test pulse. Following steady state block with exemplary compounds (e.g., as described herein), a Na+ free solution containing an impermeant cation (e.g., Choline or NDMG) was added to confirm the identity of the sodium current. Percent steady-state inhibition of INaL was calculated as: […], where INaL_compound and INaL_control represent INaL recorded in the presence or absence of compound, respectively.
Results from this assay relating to percent inhibition of INaL at hNaV1.6 (measured using a procedure similar to described above but using HEK-293 cells expressing recombinant, human NaV 1.6 (h NaV 1.6) at 1 μM are summarized in Table 1 below. In this table, “A” indicates inhibition of less than 30%; “B” indicates inhibition of between about 30% to about 70%; and “C” indicates inhibition of greater than 70%. “N/A” indicates not available.

T1 sequence (Q9UQD0 whole entry): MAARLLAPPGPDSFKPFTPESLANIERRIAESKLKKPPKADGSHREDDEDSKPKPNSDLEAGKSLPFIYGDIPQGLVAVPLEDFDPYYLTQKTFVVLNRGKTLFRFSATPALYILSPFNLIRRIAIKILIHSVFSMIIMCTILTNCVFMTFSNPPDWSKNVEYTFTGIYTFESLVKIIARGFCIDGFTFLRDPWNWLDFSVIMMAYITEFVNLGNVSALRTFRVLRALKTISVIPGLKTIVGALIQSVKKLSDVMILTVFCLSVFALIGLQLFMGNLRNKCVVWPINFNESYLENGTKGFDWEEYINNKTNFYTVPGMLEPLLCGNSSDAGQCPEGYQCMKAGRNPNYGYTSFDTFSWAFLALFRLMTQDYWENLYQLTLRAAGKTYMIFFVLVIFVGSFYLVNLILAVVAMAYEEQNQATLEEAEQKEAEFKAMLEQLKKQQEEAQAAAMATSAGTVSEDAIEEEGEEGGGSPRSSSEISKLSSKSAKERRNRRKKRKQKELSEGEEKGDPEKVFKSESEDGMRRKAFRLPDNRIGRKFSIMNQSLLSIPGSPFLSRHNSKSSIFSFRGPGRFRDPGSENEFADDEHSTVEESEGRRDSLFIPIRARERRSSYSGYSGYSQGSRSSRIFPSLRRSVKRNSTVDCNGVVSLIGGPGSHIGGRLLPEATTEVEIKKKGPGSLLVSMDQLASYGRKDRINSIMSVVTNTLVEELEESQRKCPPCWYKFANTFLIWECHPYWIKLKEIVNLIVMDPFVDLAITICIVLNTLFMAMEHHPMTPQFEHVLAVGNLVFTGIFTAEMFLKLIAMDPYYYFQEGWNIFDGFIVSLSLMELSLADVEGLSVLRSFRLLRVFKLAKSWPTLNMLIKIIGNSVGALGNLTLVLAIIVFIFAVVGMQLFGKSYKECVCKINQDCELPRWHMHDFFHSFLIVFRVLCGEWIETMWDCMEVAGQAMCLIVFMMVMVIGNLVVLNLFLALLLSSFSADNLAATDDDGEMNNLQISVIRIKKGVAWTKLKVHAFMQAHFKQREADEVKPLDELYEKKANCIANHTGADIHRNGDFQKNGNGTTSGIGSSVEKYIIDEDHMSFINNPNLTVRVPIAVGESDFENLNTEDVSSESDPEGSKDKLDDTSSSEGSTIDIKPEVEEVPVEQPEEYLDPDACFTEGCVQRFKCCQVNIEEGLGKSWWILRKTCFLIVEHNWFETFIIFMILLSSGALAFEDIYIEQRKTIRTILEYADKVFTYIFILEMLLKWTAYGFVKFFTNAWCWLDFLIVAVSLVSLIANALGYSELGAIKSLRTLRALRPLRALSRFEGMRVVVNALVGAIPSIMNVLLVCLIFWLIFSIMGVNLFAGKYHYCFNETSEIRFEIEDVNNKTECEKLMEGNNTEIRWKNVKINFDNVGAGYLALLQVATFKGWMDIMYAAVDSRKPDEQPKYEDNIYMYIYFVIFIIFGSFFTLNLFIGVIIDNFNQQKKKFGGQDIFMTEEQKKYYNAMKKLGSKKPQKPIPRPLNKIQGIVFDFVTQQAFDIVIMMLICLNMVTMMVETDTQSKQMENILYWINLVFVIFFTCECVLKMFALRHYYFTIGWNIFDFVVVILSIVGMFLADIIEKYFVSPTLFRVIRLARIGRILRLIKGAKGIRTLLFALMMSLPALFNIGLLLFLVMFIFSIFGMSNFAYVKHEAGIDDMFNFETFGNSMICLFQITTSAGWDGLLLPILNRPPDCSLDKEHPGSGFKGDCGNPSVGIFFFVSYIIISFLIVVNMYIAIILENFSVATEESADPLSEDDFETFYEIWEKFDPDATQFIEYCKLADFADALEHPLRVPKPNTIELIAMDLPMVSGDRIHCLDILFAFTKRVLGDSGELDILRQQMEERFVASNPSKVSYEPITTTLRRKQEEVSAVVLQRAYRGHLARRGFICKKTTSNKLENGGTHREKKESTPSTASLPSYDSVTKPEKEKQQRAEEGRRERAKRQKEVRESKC

inhibition at 1 µM [%]	SMILES
> 70	COC(C)(C)c1nnc2cnc(-c3cnc(OC(C)(C)C(F)(F)F)c(F)c3)cn12 [Compound II-10, 6-[5-fluoro-6-(2,2,2-trifluoro-1,1-dimethyl-ethoxy)-3-pyridyl]-3-(1-methoxy-1-methyl-ethyl)-[1,2,4]triazolo[4,3-a]pyrazine]
> 70	FC(F)(F)Oc1ccc(-c2cn3c(C(F)(F)F)nnc3cn2)c(C2CC2)c1 [Compound III-1, 6-[2-cyclopropyl-4-(trifluoromethoxy)phenyl]-3-(trifluoromethyl)-[1,2,4]triazolo[4,3-a]pyrazine]
30 to 70	CO[C@@H](C)c1nnc2cnc(-c3cnc(OC(C)(C)C(F)(F)F)c(F)c3)cn12 (single isomer, unassigned) [Compound I-2]
30 to 70	COC(C)(C)c1nnc2cnc(-c3cnc(O[C@@H](C)C(F)(F)F)c(F)c3)cn12 [Compound II-9, (S)-6-(5-fluoro-6-((1,1,1-trifluoropropan-2-yl)oxy)pyridin-3-yl)-3-(2-methoxypropan-2-yl)-[1,2,4]triazolo[4,3-a]pyrazine]
< 30	CO[C@H](C)c1nnc2cnc(-c3ccc(O[C@H](C4CC4)C(F)(F)F)nc3)cn12 (single isomer, unassigned) [Compound I-24]
< 30	COC1(c2nnc3cnc(-c4cnc(O[C@H](C)C(F)(F)F)c(F)c4)cn23)CC1 [Compound II-2, (R)-6-(5-fluoro-6-((1,1,1-trifluoropropan-2-yl)oxy)pyridin-3-yl)-3-(1-methoxycyclopropyl)-[1,2,4]triazolo[4,3-a]pyrazine]
30 to 70	COC1(c2nnc3cnc(-c4cnc(O[C@@H](C)C(F)(F)F)c(F)c4)cn23)CC1 [Compound II-3, (S)-6-(5-fluoro-6-((1,1,1-trifluoropropan-2-yl)oxy)pyridin-3-yl)-3-(1-methoxycyclopropyl)-[1,2,4]triazolo[4,3-a]pyrazine]
< 30	CO[C@@H](C)c1nnc2cnc(-c3ccc(O[C@H](C4CC4)C(F)(F)F)nc3)cn12 (single isomer, unassigned) [Compound I-23]
> 70	C[C@@H](Oc1ccc(-c2cn3c(C(F)F)nnc3cn2)cn1)C(F)(F)F [Compound III-13, (R)-3-(difluoromethyl)-6-(6-((1,1,1-trifluoropropan-2-yl)oxy)pyridin-3-yl)-[1,2,4]triazolo[4,3-a]pyrazine]
< 30	CCOC(F)(F)c1nnc2cnc(-c3ccc([C@H](C)OCC(F)(F)F)cc3C)cn12 (single isomer, unassigned) [Compound III-10]
30 to 70	COC(C)(C)c1nnc2cnc(-c3ccc(OC(C)(C)C(F)(F)F)nc3)cn12 [Compound II-14, 3-(1-methoxy-1-methyl-ethyl)-6-[6-(2,2,2-trifluoro-1,1-dimethyl-ethoxy)-3-pyridyl]-[1,2,4]triazolo[4,3-a]pyrazine]
< 30	COC(F)(F)c1nnc2cnc(-c3ccc([C@H](C)OCC(F)(F)F)cc3)cn12 (single isomer, unassigned) [Compound III-18]
< 30	COC(C)(C)c1nnc2cnc(-c3cnc(OCC(F)(F)F)c(F)c3)cn12 [Compound II-4, 6-(5-fluoro-6-(2,2,2-trifluoroethoxy)pyridin-3-yl)-3-(2-methoxypropan-2-yl)-[1,2,4]triazolo[4,3-a]pyrazine]
30 to 70	CCO[C@@H](C)c1nnc2cnc(-c3cnc(OC(C)(C)C(F)(F)F)c(F)c3)cn12 [Compound I-12, 6-[5-fluoro-6-(2,2,2-trifluoro-1,1-dimethyl-ethoxy)-3-pyridyl]-3-[(1S)-1-ethoxyethyl]-[1,2,4]triazolo[4,3-a]pyrazine]
30 to 70	FC(F)(F)c1nnc2cnc(-c3ccc(O[C@H](C4CC4)C(F)(F)F)nc3)cn12 (single isomer, unassigned) [Compound III-14]
> 70	COC(F)(F)c1nnc2cnc(-c3ccc([C@@H]4CC4(F)F)cc3C)cn12 (single isomer, unassigned) [Compound III-8]
30 to 70	CCOC(C)(C)c1nnc2cnc(-c3cnc(OC(C)(C)C(F)(F)F)c(F)c3)cn12 [Compound II-11, 3-(2-ethoxypropan-2-yl)-6-(5-fluoro-6-((1,1,1-trifluoro-2-methylpropan-2-yl)oxy)pyridin-3-yl)-[1,2,4]triazolo[4,3-a]pyrazine]
30 to 70	CO[C@H](C)c1nnc2cnc(-c3cnc(OC4(C(F)(F)F)CCC4)c(F)c3)cn12 (single isomer, unassigned) [Compound I-3]
> 70	CO[C@H](C)c1nnc2cnc(-c3cnc(OC(C)(C)C(F)(F)F)c(F)c3)cn12 (single isomer, unassigned) [Compound I-1]
30 to 70	CO[C@@H](C)c1nnc2cnc(-c3ccc(OC(C)(C)C(F)(F)F)nc3)cn12 (single isomer, unassigned) [Compound I-10]
30 to 70	CO[C@@H](C)c1nnc2cnc(-c3cnc(O[C@H](C4CC4)C(F)(F)F)c(F)c3)cn12 (single isomer, unassigned) [Compound I-16]
< 30	CO[C@@H](C)c1nnc2cnc(-c3ccc(O[C@@H](C4CC4)C(F)(F)F)nc3)cn12 (single isomer, unassigned) [Compound I-21]
> 70	CCOC(F)(F)c1nnc2cnc(-c3ccc(OC(F)(F)F)cc3C3CC3)cn12 [Compound III-2, 6-[2-cyclopropyl-4-(trifluoromethoxy)phenyl]-3-[ethoxy(difluoro)methyl]-[1,2,4]triazolo[4,3-a]pyrazine]
< 30	CO[C@H](C)c1nnc2cnc(-c3ccc(O[C@@H](C4CC4)C(F)(F)F)nc3)cn12 (single isomer, unassigned) [Compound I-22]
30 to 70	CCO[C@H](C)c1nnc2cnc(-c3ccc(OC(C)(C)C(F)(F)F)nc3)cn12 [Compound I-19, (R)-3-(1-ethoxyethyl)-6-(6-((1,1,1-trifluoro-2-methylpropan-2-yl)oxy)pyridin-3-yl)-[1,2,4]triazolo[4,3-a]pyrazine]
< 30	COC(F)(F)c1nnc2cnc(-c3ccc([C@@H](C)OCC(F)(F)F)cc3)cn12 (single isomer, unassigned) [Compound III-17]

SMILES	inhibition at 1 µM [%]
CCO[C@H](C)c1nnc2cnc(-c3ccc(OC4(C(F)(F)F)CCC4)nc3)cn12 [Compound I-20, (R)-3-(1-ethoxyethyl)-6-(6-(1-(trifluoromethyl)cyclobutoxy)pyridin-3-yl)-[1,2,4]triazolo[4,3-a]pyrazine]	30 to 70
COC(C)(C)c1nnc2cnc(-c3cnc(OC4(C(F)(F)F)CCC4)c(F)c3)cn12 [Compound II-12, 6-(5-fluoro-6-(1-(trifluoromethyl)cyclobutoxy)pyridin-3-yl)-3-(2-methoxypropan-2-yl)-[1,2,4]triazolo[4,3-a]pyrazine]	> 70
CCO[C@@H](C)c1nnc2cnc(-c3ccc(OC4(C(F)(F)F)CCC4)nc3)cn12 [Compound I-11, (S)-3-(1-ethoxyethyl)-6-(6-(1-(trifluoromethyl)cyclobutoxy)pyridin-3-yl)-[1,2,4]triazolo[4,3-a]pyrazine]	30 to 70
CCO[C@@H](C)c1nnc2cnc(-c3cnc(OC4(C(F)(F)F)CCC4)c(F)c3)cn12 [Compound I-7, (S)-3-(1-ethoxyethyl)-6-(5-fluoro-6-(1-(trifluoromethyl)cyclobutoxy)pyridin-3-yl)-[1,2,4]triazolo[4,3-a]pyrazine]	30 to 70
